Results from patent publication US20090226427A1, “NOVEL PHARMACEUTICAL COMPOSITIONS FOR MODULATING ANGIOGENESIS” (priority 1999, published 2009).

Columns and labels:
[1] = system: phospho-Ser1177-eNOS; assay: phospho-Ser1177 eNOS immunoblot, CMECs; type: cell-based, Mouse
From the text: The modulation of eNOS phosphorylation by statins was examined using anti-phospho-Ser1177 eNOS antibodies.

[2] = system: phospho-Akt/eNOS interaction; assay: eNOS/phospho-Akt co-immunoprecipitation, statin-exposed HUVECs
[3] = system: caveolin; assay: caveolin immunoblot, AoECs; type: cell-based, rat; conditions: n=3, P<0.01
From the text: (§1) Therefore, the effects of statin exposure on the absolute amounts of caveolin in AoECs and CMECs was examined.

[4] = system: CMECs; assay: angiogenesis assay on Matrigel, CMECs; type: cell-based, Mouse
Protocol: (§2) Tube formation was observed using an inverted phase-contrast microscope (Zeiss Axiovert 25), and images were captured with a videographic system (Pixera Pro). The tube formation index was determined by measuring the length of tubes in random fields from each well using the Image J program. Statistical analyses were made using the Student t test or one-way ANOVA where appropriate.

[5] = system: caveolin/eNOS interaction; assay: caveolin/eNOS co-immunoprecipitation, AoECs; type: cell-based, rat
Protocol: (§3) In some experiments, ECs were recovered from Matrigel after a 5-minute incubation with 50 mg/mL collagenase under constant agitation, followed by two sequences of washing/centrifugation (2000 rpm for 5 minutes at 4° C.).

[6] = system: HUVECs; assay: angiogenesis assay on Matrigel, HUVECs; type: cell-based, human; conditions: HUVECs; 0.1 μmol/L
Protocol: as §2
Transfection and peptide loading was performed by reversible permeabilization: HUVECs were transfected with the hsp90 cDNA (a gift from Dr W. C. Sessa, Yale University, New Haven, Conn.) using Lipofectamine (Invitrogen) according to the manufacturer's protocol; an irrelevant plasmid encoding β-galactosidase was used as a control to obtain identical amounts of transfected DNA in each condition. HUVECs were also reversibly permeabilized, as previously reported (Feron et al. J Biol. Chem. 1998; 273:30249-30254), to introduce synthetic peptides derived from the caveolin scaffolding domain (CSD).

[7] = system: caveolin; assay: caveolin immunoblot, CMECs; type: cell-based, Mouse; conditions: 3-hour exposure of CMECs
From the text: as §1

[8] = system: endothelial cells; assay: sandwich Matrigel model of endothelial tube formation; type: cell-based; conditions: non-transfected cells
Protocol: Indeed, while endothelial cells culture leads to pavimentous organization when plated on dishes (FIG. 1A), endothelial cells progressively form tubes when cultured within gels of collagen, fibrin or Matrigel®. Accordingly, in the “3-D model”, endothelial cells are mixed to the matrix before gelification and tube-like structures are obtained after 48-72 hours (FIG. 1B); this model, however, reduces the efficiency of transfection. In the “sandwich model”, cells are first cultured to confluence on a first layer of matrix, and are then covered by a second matrix layer; cells are easily transfected in the interval preceding the addition of the upper layer. The latter technique allows the formation of endothelial tubes in 3-6 hours; the tube structures are mature 12 hours after induction (FIG. 1C) and then start to regress.
Of note, when endothelial cells were transfected with an irrelevant construct (β-galactosidase-encoding), no change in the rate and extent of tube formation was observed.

[9] = system: phospho-Ser1177-eNOS; assay: phospho-Ser1177-eNOS immunoblot, statin-exposed HUVECs
[10] = system: Akt/hsp90 interaction; assay: Akt/hsp90 co-immunoprecipitation, statin-exposed HUVECs; type: cell-based, human; conditions: 5-minute exposure
[11] = system: caveolin; assay: caveolin immunoblot, CoMECs; type: cell-based, human; conditions: microvascular outgrowing CoMECs
From the text: as §1

[12] = system: AoECs; assay: aortic ring culture in Matrigel, AoEC network organization; type: cell-based, rat
Protocol: Cultures of AoECs and CoMECs organized in a network were then challenged at day 5 by incubation under serum-free conditions for 24 to 48 hours with or without some of the drugs mentioned above. […] Tube formation was observed using an inverted phase-contrast microscope (Zeiss Axiovert 25), and images were captured with a videographic system (Pixera Pro). The tube formation index was determined by measuring the length of tubes in random fields from each well using the Image J program. Statistical analyses were made using the Student t test or one-way ANOVA where appropriate.

[13] = system: caveolin; assay: caveolin immunoblot, AECs; type: cell-based, Bovine; conditions: isolated aortic ECs after statin treatment
From the text: as §1

[14] = system: hsp90; assay: hsp90 tyrosine phosphorylation, HUVECs; type: cell-based, human
[15] = system: caveolin/eNOS interaction; conditions: CMECs; P>0.1, n=3
Protocol: as §3

[16] = system: phospho-eNOS; assay: phospho-eNOS immunoblot and hsp90/eNOS interaction, AoECs; type: cell-based, rat
[17] = system: phospho-Ser473-Akt; assay: phospho-Ser473-Akt immunoblot, statin-exposed HUVECs; conditions: 5-minute incubation
[18] = system: eNOS/hsp90 interaction; assay: eNOS/hsp90 co-immunoprecipitation, statin-exposed HUVECs; conditions: 5-minute exposure

CC(C)c1c(C(=O)Nc2ccccc2)c(-c2ccccc2)c(-c2ccc(F)cc2)n1CC[C@@H](O)C[C@@H](O)CC(=O)O [atorvastatin]
eNOS phosphorylation (Ser1177) [1]: did produce eNOS phosphorylation
time to maximum of the Akt-hsp90-eNOS mutual interaction [2]: 1 to 2 h
association of Akt with eNOS ([2]; 5-minute exposure): insufficient to promote the association of Akt with eNOS
reduction of the AoEC pool of caveolin [3]: 26+/−5%
time of maximal proangiogenic effect ([4]; CMECs on Matrigel): 3 h
formation of capillary-like structures on Matrigel ([4]; freshly isolated CMECs, atorvastatin 1 _mol/L): rapidly led to the formation of capillary-like structures
eNOS found in the caveolin immunoprecipitate ([5]; AoECs exposed to atorvastatin for 5 days, n=6, 44+/−8% without statin): 8+/−5%
change in amount of caveolin immunoprecipitated by eNOS antibodies ([5]; atorvastatin-treated AoECs, P<0.01, n=3): −73+/−7%
tube formation [6]: stimulated tube formation
abundance of caveolin [7]: did not alter
endothelial tube formation [8]: accelerated the endothelial tube formation
eNOS phosphorylation ([9]; 5-minute incubation): did not promote eNOS phosphorylation
eNOS phosphorylation ([9]; 30 minutes exposure): produced eNOS phosphorylation
interaction of hsp90 with Akt [10]: sufficient to promote the interaction of hsp90 with both Akt and eNOS
caveolin expression [11]: did not any alteration in caveolin expression
serum-driven formation of the AoEC network ([12]; atorvastatin present during 5 to 7 days of cell growth): did not significantly influence
network organization after serum deprivation ([12]; statin pretreatment, then deprived of serum for 48 hours): dramatically stabilized the network organization
caveolin abundance [13]: significant decrease in caveolin abundance
tyrosine phosphorylation of hsp90 [14]: rapidly and dose-dependently induced
amount of caveolin immunoprecipitated by eNOS antibodies [15]: not significantly altered
phosphorylation of eNOS ([16]; AoECs, 5-day treatment then 48-hour period in the absence of atorvastatin): no effect
amounts of phospho-eNOS and hsp90/eNOS interaction ([16]; uninterrupted exposure of outgrowing AoECs (or isolated AECs)): significant increase
Akt phosphorylation [17]: sufficient to induce Akt phosphorylation
interaction of hsp90 with eNOS [18]: sufficient to promote the interaction of hsp90 with both Akt and eNOS
